The values below come from US20150344457A1, “METHODS OF INHIBITING PRMT5” (EPIZYME, INC., priority 2012, published 2015).

In assay [1] the test system is Z-138 cells. Put plainly: Z-138 Methylation Assay (In Cell Western for symmetric di-methyl arginine and DNA content). The class given is cell-based. To be noted: Homo sapiens, Table D-2, read-out: ICW EC50. Put shortly: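 Z-138 cells at 50,000 cells/mL exposed to compound 96 h at 37 °C, then attached to poly-D-lysine plates, fixed with paraformaldehyde and probed with anti-symmetric di-methyl arginine plus DRAQ5 DNA stain. 800/700 nm ratio normalized to DMSO and 3 μM reference controls; IC50 from triplicate wells.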

Assay [2] relates to Z-138 cells. Put plainly: Z-138 Proliferation Assay (Cell Titer Glo, 5 days). The class given is cell-based. To be noted: Homo sapiens, Table D-2. Put shortly: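 Exponentially growing Z-138 cells (10,000 cells/ml) in RPMI 1640 with 10% FBS are exposed to nine-point 3-fold dilutions (final top concentration 20 μM, 0.2% DMSO) for 5 days at 37° C. Viability is measured as ATP by CellTiter-Glo luminescence. The 50% inhibitory concentration comes from a 4-parameter fit.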

As a reminder, the EC50 is the concentration that produces a half-maximal response.

In the case of `OC(COc1ccc(C2CCCNC2)cc1)CN1CCc2ccccc2C1` (stereo not shown) [Compound D47], the figures for the EC50 in assay [1] and in assay [2] were 0.101 to 1 µM and 1 to 10 µM, respectively.
With `O=C(Cn1cnc2ccc(-c3cccc(OCC(O)CN4CCc5ccccc5C4)c3)cc21)N1CCOCC1` (stereo not shown) [Compound D264], the EC50 in assay [1] and in assay [2] was 1 to 10 µM each time.
With `OC(COc1cccc(-c2cnc3ccccc3c2)c1)CN1CCc2ccccc2C1` (stereo not shown) [Compound D89], the EC50 fell in the range of 1 to 10 µM in assay [1] and 10 to 40 µM in assay [2].
For `O=C(Cn1cnc2ccc(-c3cccc(OCC(O)CN4CCc5ccccc5C4)c3)cc21)N1CCCC1` (stereo not shown) [Compound D263] the same measures were 0.101 to 1 µM and 10 to 40 µM.
For `OCc1cccc(-c2cccc(OCC(O)CN3CCc4ccccc4C3)c2)c1` (stereo not shown) [Compound D72] the same measures were 1 to 10 µM and 10 to 40 µM.
For the molecule `COc1ccc(-c2cccc(OCC(O)CN3CCc4ccccc4C3)c2)c(Cl)c1` (stereo not shown) [Compound D88], the values for the EC50 in assay [1] and in assay [2] were 1 to 10 µM and 10 to 40 µM, respectively.
With `O[C@@H](COc1cccc(-c2cccc3cccnc23)c1)CN1CCc2ccccc2C1` [Compound D257], the results for the EC50 in assay [1] and in assay [2] were 0.101 to 1 µM and 1 to 10 µM, respectively.
The like results for `CN1CCC(n2cnc3ccc(-c4cccc(OCC(O)CN5CCc6ccccc6C5)c4)cc32)CC1` (stereo not shown) [Compound D221] were, in that order, 0.101 to 1 µM and 1 to 10 µM.
For `Cn1cnc2cc(-c3cccc(OCC(O)CN4CCc5ccccc5C4)c3)ccc21` (stereo not shown) [Compound D60] the same measures were 0.101 to 1 µM and 10 to 40 µM.
The like results for `Cc1ncc2ccc(-c3cccc(OCC(O)CN4CCc5ccccc5C4)c3)cn12` (stereo not shown) [Compound D266] were, in that order, 1 to 10 µM and 1 to 10 µM.
For `CN1CCC(n2cnc3ccc(-c4ccnc(NCC(O)CN5CCc6ccccc6C5)c4)cc32)C1` (stereo not shown) [Compound D250], the EC50 was in the range of 0.101 to 1 µM in assay [1] and 1 to 10 µM in assay [2].
For `OC(COc1cccc(-c2ccccc2)c1)CN1CCc2ccccc2C1` (stereo not shown) [Compound D43] the same measures were 1 to 10 µM and over 20 µM.
The like results for `OC(COc1cccc(-c2cccc3c2oc2ccccc23)c1)CN1CCc2ccccc2C1` (stereo not shown) [Compound D86] were, in that order, 1 to 10 µM and 10 to 40 µM.
The like results for `OC(COc1cccc(-c2ccc3nc[nH]c3c2)c1)CN1CCc2ccccc2C1` (stereo not shown) [Compound D83] were, in that order, 1 to 10 µM and 10 to 40 µM.
For `OC(CNc1cccc(-c2cccc3[nH]cnc23)c1)CN1CCc2ccccc2C1` (stereo not shown) [Compound D235], the EC50 in assay [1] is 0.101 to 1 µM; in assay [2] it was 10 to 40 µM.
For `O=C(Cn1cnc2ccc(-c3cccc(OCC(O)CN4CCc5ccccc5C4)c3)cc21)N1CCCCC1` (stereo not shown) [Compound D249] the same measures were 0.101 to 1 µM and 10 to 40 µM.
Turning to `CC(=O)c1cccc(-c2cccc(OCC(O)CN3CCc4ccccc4C3)c2)c1` (stereo not shown) [Compound D67], the EC50 in assay [1] lay in the range of 1 to 10 µM; in assay [2], 10 to 40 µM.
For `OC(COc1cccc(-c2ccccc2Cl)c1)CN1CCc2ccccc2C1` (stereo not shown) [Compound D92] the same measures were 1 to 10 µM and 10 to 40 µM.
For `OC(COc1cccc(-c2ccc3ncn(C4COC4)c3c2)c1)CN1CCc2ccccc2C1` (stereo not shown) [Compound D269] the same measures were 0.101 to 1 µM and 10 to 40 µM.
For `CC(C)n1cnc2ccc(-c3cccc(OCC(O)CN4CCc5ccccc5C4)c3)cc21` (stereo not shown) [Compound D81] the same measures were 0.101 to 1 µM and 10 to 40 µM.
As for `OC(COc1cccc(-c2ccc3nn[nH]c3c2)c1)CN1CCc2ccccc2C1` (stereo not shown) [Compound D84], the EC50 in assay [1] and in assay [2] was 1 to 10 µM throughout.
Consider `Cn1ccc2cnc(-c3ccnc(NCC(O)CN4CCc5ccccc5C4)c3)nc21` (stereo not shown) [Compound D239], for which the figures for the EC50 in assay [1] and in assay [2] were under 0.1 µM and 1 to 10 µM, respectively.
Consider `OC(COc1cccc(-c2cccc(F)c2F)c1)CN1CCc2ccccc2C1` (stereo not shown) [Compound D68], for which the EC50 in assay [1] and in assay [2] was 10 to 40 µM in each case.
